From US20260007133A1, “HERBICIDAL COMPOSITION COMPRISING AZINE COMPOUNDS” (BASF SE, priority 2022, published 2026)
Where two headings read alike, the source gives them in different places.

What was measured:
Assay type in all cases: in vivo
Abutilon theophrasti [1] = experiment: Greenhouse pre-emergence (PRE) herbicidal test on ABUTH; conditions: Abutilon theophrasti, pre-emergence, 480 h, PRE, 20 DAT
Experimental: (§1) The culture containers used were plastic pots containing loamy sand with approximately 3.0% of humus as substrate. The seeds of the test plants were sown separately for each species.
(§2) The containers were irrigated gently to promote germination and growth and subsequently covered with transparent plastic hoods until the plants had rooted.
(§3) Depending on the species, the plants were kept at 10-25° C. and 20-35° C., respectively.
(§4) The test period extended over 2 to 4 weeks. During this time, the plants were tended and their response to the individual treatments was evaluated.
(§5) Evaluation was carried out using a scale from 0 to 100. 100 means no emergence of the plants, or complete destruction of at least the above-ground parts, and 0 means no damage or normal course of growth. A good herbicidal activity is given at values of at least 70, and very good herbicidal activity is given at values of at least 85.
(§6) As indicated application was either post emergent (POST) at the respective growth stage (GS) of the weed (BBCH code), or pre-emergent (PRE). […]

Alopecurus myosuroides = experiment: Greenhouse pre-emergence (PRE) herbicidal test on ALOMY; conditions: Alopecurus myosuroides, pre-emergence; for inhibition at 6.25 g/ha: read-out: % activity
Experimental: as §1, §2, §3, §4, §5, §6

Ambrosia artemisiifolia = experiment: Greenhouse pre-emergence (PRE) herbicidal test on AMBEL; conditions: PRE, AMBEL, 20 DAT
Experimental: as §1, §2, §3, §4, §5, §6

Euphorbia heterophylla [2] = experiment: Greenhouse pre-emergence (PRE) herbicidal test on EPHHL; conditions: Euphorbia heterophylla, pre-emergence, 480 h, PRE, 20 DAT
Experimental: as §1, §2, §3, §4, §5, §6

Abutilon theophrasti [3] = experiment: Greenhouse post-emergence (POST) herbicidal test on ABUTH; conditions: for % activity: ABUTH POST
Experimental: as §1
(§7) For the post-emergence treatment, the test plants were grown to a plant height of from 3 to 15 cm, depending on the plant habit, and only then treated with the active compounds which had been suspended or emulsified in water. To this end, the test plants were either sown directly, and grown in the same containers, or they were first grown separately as seedlings and transplanted into the test containers a few days prior to treatment.
as §3, §4, §5
(§8) If not stated differently, the respective components A and B, and if appropriate, C were formulated as a 5% by weight strength emulsion concentrate and, with addition of the amount of solvent system, introduced into the spray liquor used for applying the active compound.
as §6

Amaranthus retroflexus = experiment: Greenhouse post-emergence (POST) herbicidal test on AMARE
Experimental: as §1, §7, §3, §4, §5, §8, §6

Euphorbia heterophylla [4] = experiment: Greenhouse post-emergence (POST) herbicidal test on EPHHL; conditions: for % activity: EPHHL POST
Experimental: as §1, §7, §3, §4, §5, §8, §6

Geranium pusillum = experiment: Greenhouse post-emergence (POST) herbicidal test on GERPU; conditions: Geranium pusillum, post-emergence
Experimental: as §1, §7, §3, §4, §5, §8, §6

Ipomoea hederacea = experiment: Greenhouse post-emergence (POST) herbicidal test on IPOHE
Experimental: as §1, §7, §3, §4, §5, §8
As indicated application was either post emergent (POST) at the respective growth stage (GS) of the weed (BBCH code), or pre-emergent (PRE).
Assessment was 20 days after treatment (DAT).

Commelina benghalensis = experiment: Greenhouse pre-emergence (PRE) herbicidal test on COMBE; conditions: Commelina benghalensis, pre-emergence
Experimental: as §1, §2, §3, §4, §5, §6

Echinochloa crus-galli [5] = experiment: Greenhouse pre-emergence (PRE) herbicidal test on ECHCG
Experimental: as §1, §2, §3, §4, §5, §6

Lolium multiflorum = experiment: Greenhouse pre-emergence (PRE) herbicidal test on LOLMU
Experimental: as §1, §2, §3, §4, §5, §6

Setaria viridis = experiment: Greenhouse pre-emergence (PRE) herbicidal test on SETVI; conditions: for inhibition at 6.25 g/ha / inhibition at 12.5 g/ha: read-out: % activity
Text: as §1
For the pre-emergence treatment, the active compounds, suspended or emulsified in water, were applied directly after sowing by means of finely distributing nozzles. The containers were irrigated gently to promote germination and growth and subsequently covered with transparent plastic hoods until the plants had rooted. This cover caused uniform germination of the test plants unless this was adversely affected by the active compounds.
as §3, §4, §5, §8, §6

Digitaria sanguinalis = experiment: Greenhouse post-emergence (POST) herbicidal test on DIGSA; conditions: for % activity: DIGSA POST
Experimental: as §1, §7, §3, §4, §5, §8, §6

Echinochloa crus-galli [6] = experiment: Greenhouse post-emergence (POST) herbicidal test on ECHCG; conditions: Echinochloa crus-galli, post-emergence
Experimental: as §1, §7, §3, §4, §5, §8, §6

[7] = Echinochloa crus-galli, pre-emergence, 480 h, read-out: % activity
[8] = Setaria viridis, pre-emergence, 480 h
[9] = Amaranthus retroflexus, post-emergence, read-out: % activity

CCCC(=NOCC)C1=C(O)CC(C2CCCSC2)CC1=O (stereo not shown) [Cycloxydim, cycloxydim]
pest or weed control at 5 g/ha (Abutilon theophrasti [1]; 5 gai/ha): 0%
inhibition at 5 g/ha (Abutilon theophrasti [1]; ABUTH, use rate 5 gai/ha, read-out: solo application % activity): 0%
pest or weed control at 20 g/ha (Alopecurus myosuroides; 480 h, PRE, 20 gai/ha, 20 DAT): 60%
inhibition at 5 g/ha (Alopecurus myosuroides; 480 h, PRE, ALOMY, use rate 5 gai/ha, 20 DAT, read-out: solo application % activity): 15%
inhibition at 20 g/ha (Alopecurus myosuroides; 480 h, PRE, ALOMY, use rate 20 gai/ha, 20 DAT, read-out: solo application % activity): 60%
inhibition at 5 g/ha (Ambrosia artemisiifolia; Ambrosia artemisiifolia, pre-emergence, 480 h, use rate 5 gai/ha, read-out: solo application % activity): 0%
inhibition at 20 g/ha (Ambrosia artemisiifolia; Ambrosia artemisiifolia, pre-emergence, 480 h, use rate 20 gai/ha, read-out: solo application % activity): 0%
pest or weed control at 5 g/ha (Euphorbia heterophylla [2]; 5 gai/ha): 5%
inhibition at 5 g/ha (Euphorbia heterophylla [2]; EPHHL, use rate 5 gai/ha, read-out: solo application % activity): 5%
inhibition at 20 g/ha (Euphorbia heterophylla [2]; EPHHL, use rate 20 gai/ha, read-out: solo application % activity): 10%
pest or weed control at 5 g/ha (Abutilon theophrasti [3]; Abutilon theophrasti, post-emergence, 480 h, POST, 5 gai/ha, 20 DAT): 0%
inhibition at 5 g/ha (Abutilon theophrasti [3]; Abutilon theophrasti, post-emergence, 480 h, POST, ABUTH, use rate 5 gai/ha, 20 DAT, read-out: solo application % activity): 0%
inhibition at 20 g/ha (Abutilon theophrasti [3]; Abutilon theophrasti, post-emergence, 480 h, POST, ABUTH, use rate 20 gai/ha, 20 DAT, read-out: solo application % activity): 0%
inhibition at 5 g/ha (Amaranthus retroflexus; Amaranthus retroflexus, post-emergence, 480 h, POST, AMARE, use rate 5 gai/ha, 20 DAT, read-out: solo application % activity): 0%
inhibition at 20 g/ha (Euphorbia heterophylla [4]; Euphorbia heterophylla, post-emergence, 480 h, POST, EPHHL, use rate 20 gai/ha, 20 DAT, read-out: solo application % activity): 0%
inhibition at 5 g/ha (Geranium pusillum; 480 h, POST, GERPU, use rate 5 gai/ha, 20 DAT, read-out: solo application % activity): 5%
pest or weed control at 5 g/ha (Ipomoea hederacea; Ipomoea hederacea, post-emergence, 480 h, POST, 5 gai/ha, 20 DAT): 0%
inhibition at 5 g/ha (Ipomoea hederacea; Ipomoea hederacea, post-emergence, 480 h, POST, IPOHE, use rate 5 gai/ha, 20 DAT, read-out: solo application % activity): 0%
inhibition at 20 g/ha (Ipomoea hederacea; Ipomoea hederacea, post-emergence, 480 h, POST, IPOHE, use rate 20 gai/ha, 20 DAT, read-out: solo application % activity): 0%

CCC/C(=N\OCC)C1=C(O)CC(CC(C)SCC)CC1=O (stereo not shown) [Sethoxydim, sethoxydim]
inhibition at 6.25 g/ha (Alopecurus myosuroides; 480 h): 20%
inhibition at 6.25 g/ha (Alopecurus myosuroides): 20%
inhibition at 6.25 g/ha (Commelina benghalensis; read-out: % activity): 0%
inhibition at 6.25 g/ha (Echinochloa crus-galli [5]; [7]): 10%
inhibition at 12.5 g/ha (Echinochloa crus-galli [5]; [7]): 40%
inhibition at 6.25 g/ha (Lolium multiflorum; Lolium multiflorum, pre-emergence, 480 h, read-out: % activity): 15%
inhibition at 6.25 g/ha (Setaria viridis; [8]): 5%
inhibition at 12.5 g/ha (Setaria viridis; [8]): 60%
inhibition at 6.25 g/ha (Setaria viridis; Setaria viridis, pre-emergence): 5%
inhibition at 12.5 g/ha (Setaria viridis; Setaria viridis, pre-emergence): 60%

CN1C[C@H](c2cccc(C(F)(F)F)c2)[C@@H](C(=O)Nc2ccccc2F)C1=O [Tetflupyrolimet, tetflupyrolimet]
% activity (Abutilon theophrasti [3]; use rate 250 gai/ha): 5%
% activity (Amaranthus retroflexus; AMARE POST, use rate 250 gai/ha): 35%
% activity (Euphorbia heterophylla [4]; use rate 31.25 gai/ha): 0%
% activity (Euphorbia heterophylla [4]; use rate 250 gai/ha): 0%
% activity (Ipomoea hederacea; IPOHE POST, use rate 31.25 gai/ha): 0%

Cc1c(C(=O)c2cnn(C)c2O)ccc(S(C)(=O)=O)c1C1=NOCC1 [Topramezone, topramezone]
% activity (Ambrosia artemisiifolia; use rate 6.25 gai/ha): 0%
% activity (Echinochloa crus-galli [5]; PRE, ECHCG, use rate 6.25 gai/ha, 20 DAT): 10%
% activity (Lolium multiflorum; PRE, LOLMU, use rate 3.125 gai/ha, 20 DAT): 0%
% activity (Setaria viridis; PRE, SETVI, use rate 3.125 gai/ha, 20 DAT): 0%
% activity (Ipomoea hederacea; POST, IPOHE, use rate 3.125 gai/ha, 20 DAT): 15%
% activity (Ipomoea hederacea; POST, IPOHE, use rate 6.25 gai/ha, 20 DAT): 35%

Cc1cccc(C2CC2)c1Oc1nnc(Cl)cc1OC(=O)N1CCOCC1 [Cyclopyrimorate, cyclopyrimorate]
% activity (Abutilon theophrasti [3]; use rate 25 gai/ha): 5%
% activity (Digitaria sanguinalis; use rate 25 gai/ha): 10%
% activity (Digitaria sanguinalis; use rate 200 gai/ha): 40%
% activity (Ipomoea hederacea; IPOHE POST, use rate 25 gai/ha): 40%

O=C(O)CNCP(=O)(O)O [Glyphosate, glyphosate]
inhibition at 200 g/ha (Abutilon theophrasti [3]; Abutilon theophrasti, post-emergence, read-out: % activity): 25%
inhibition at 100 g/ha (Amaranthus retroflexus; [9]): 10%
inhibition at 200 g/ha (Amaranthus retroflexus; [9]): 80%
inhibition at 100 g/ha (Echinochloa crus-galli [6]; read-out: % activity): 30%
inhibition at 200 g/ha (Echinochloa crus-galli [6]; read-out: % activity): 35%
inhibition at 100 g/ha (Geranium pusillum; read-out: % activity): 45%
inhibition at 200 g/ha (Ipomoea hederacea; Ipomoea hederacea, post-emergence, read-out: % activity): 15%

CC(C)N1C(=O)c2ccccc2NS1(=O)=O [Bentazone]
inhibition at 240 g/ha (Abutilon theophrasti [1]; ABUTH, use rate 240 gai/ha, read-out: solo application % activity): 30%
inhibition at 240 g/ha (Alopecurus myosuroides; 480 h, PRE, ALOMY, use rate 240 gai/ha, 20 DAT, read-out: solo application % activity): 15%
inhibition at 240 g/ha (Ambrosia artemisiifolia; Ambrosia artemisiifolia, pre-emergence, 480 h, use rate 240 gai/ha, read-out: solo application % activity): 0%
inhibition at 480 g/ha (Ambrosia artemisiifolia; Ambrosia artemisiifolia, pre-emergence, 480 h, use rate 480 gai/ha, read-out: solo application % activity): 0%
inhibition at 240 g/ha (Commelina benghalensis; 480 h, PRE, COMBE, use rate 240 gai/ha, 20 DAT, read-out: solo application % activity): 0%
inhibition at 240 g/ha (Euphorbia heterophylla [2]; EPHHL, use rate 240 gai/ha, read-out: solo application % activity): 5%
inhibition at 480 g/ha (Euphorbia heterophylla [2]; EPHHL, use rate 480 gai/ha, read-out: solo application % activity): 5%
inhibition at 240 g/ha (Setaria viridis; Setaria viridis, pre-emergence, 480 h, PRE, SETVI, use rate 240 gai/ha, 20 DAT, read-out: solo application % activity): 10%
inhibition at 480 g/ha (Setaria viridis; Setaria viridis, pre-emergence, 480 h, PRE, SETVI, use rate 480 gai/ha, 20 DAT, read-out: solo application % activity): 0%
inhibition at 480 g/ha (Abutilon theophrasti [3]; Abutilon theophrasti, post-emergence, 480 h, POST, ABUTH, use rate 480 gai/ha, 20 DAT, read-out: solo application % activity): 10%
inhibition at 240 g/ha (Digitaria sanguinalis; Digitaria sanguinalis, post-emergence, 480 h, POST, DIGSA, use rate 240 gai/ha, 20 DAT, read-out: solo application % activity): 0%
inhibition at 240 g/ha (Echinochloa crus-galli [6]; 480 h, POST, ECHCG, use rate 240 gai/ha, 20 DAT, read-out: solo application % activity): 10%
inhibition at 480 g/ha (Echinochloa crus-galli [6]; 480 h, POST, ECHCG, use rate 480 gai/ha, 20 DAT, read-out: solo application % activity): 30%
inhibition at 240 g/ha (Euphorbia heterophylla [4]; Euphorbia heterophylla, post-emergence, 480 h, POST, EPHHL, use rate 240 gai/ha, 20 DAT, read-out: solo application % activity): 0%
inhibition at 480 g/ha (Euphorbia heterophylla [4]; Euphorbia heterophylla, post-emergence, 480 h, POST, EPHHL, use rate 480 gai/ha, 20 DAT, read-out: solo application % activity): 0%
inhibition at 240 g/ha (Ipomoea hederacea; Ipomoea hederacea, post-emergence, 480 h, POST, IPOHE, use rate 240 gai/ha, 20 DAT, read-out: solo application % activity): 0%
